Measured values reported in US8053459B1, “Selenolopyrazole derivatives and use thereof as anticancer agents” (China Medical University, priority 2010, dated 2011).

Key:
[1] = system: human renal cancer cell lines (A-498); assay: MTT cytotoxicity assay, A498; format: cell-based; settings: for IC50: Homo sapiens, read-out: IC50 (concentration of 50% proliferation-inhibitory effect) A498, A498 cells, 48 h treatment, MTT, mean of three independent experiments; for potency in inhibiting proliferation of A498 human cancer cell line: summary statement on Table 1
Method: (§1) The human lung cancer cell lines (NCI-H226) and human renal cancer cell lines (A-498) were purchased from the ATCC (Manassas, Va.). The NCI-H226 and A498 cells were cultured in RPMI-1640 and DMEM medium (GIBCO) respectively, supplemented with 10% FBS, penicillin (100 unit/mL)/streptomycin (100 μg/mL) and 1% L-glutamine. All cells were grown in a humidified atmosphere containing 5% CO2 at 37° C. The cytotoxicity was assessed using 3-(4,5-dimethylthiazol-2-yl)-2,5-diphenyltetrazolium bromide (MTT) assay. NCI-H226 and A498 cells were seeded at 1×10^4 cells/well into 96-well plates. After 24 h incubation to allow for cell attachment, cells were treated with test compounds for 48 h. After treatment, cells were washed once with PBS and incubated with 1 mg/ml MTT (Sigma, St. Louis, Mo., USA) for 2 h. Then the formazan precipitate was dissolved in […] DMSO and the absorbance was measured on an ELISA reader at a best wavelength of 570 nm.

[2] = system: human lung cancer cell lines (NCI-H226); assay: MTT cytotoxicity assay, NCI-H226; format: cell-based; settings: for IC50: Homo sapiens, read-out: IC50 (concentration of 50% proliferation-inhibitory effect) NCI-H226, NCI-H226 cells, 48 h treatment, MTT, mean of three independent experiments; for potency in inhibiting proliferation of NCI-H226 human cancer cell line: summary statement on Table 1
Method: as §1

Row | Compound | melting point [°C] | IC50 [1] [µM] | IC50 [2] [µM] | potency in inhibiting proliferation of A498 human cancer cell line [1] | potency in inhibiting proliferation of NCI-H226 human cancer cell line [2]
1 | OCc1ccc(-c2nn(-c3ccccc3F)c3cc[se]c23)o1 | 178 to 181 |  |  |  | 
2 | OCc1ccc(-c2nn(-c3ccccc3)c3[se]ccc23)o1 | 136 to 138 |  |  |  | 
3 | COC(=O)c1ccc(-c2nn(-c3ccccc3)c3cc[se]c23)o1 [Compound 34, 3-(5-Methoxycarbonyl-2-furyl)-1-phenylselenolo[3,2-c]-pyrazole] | 144 to 147 |  |  |  | 
4 | COC(=O)c1ccc(-c2nn(-c3ccccc3)c3cc(C)[se]c23)o1 [Compound 35, 3-(5-Methoxycarbonyl-2-furyl)-1-phenyl-5-methylselenolo-[3,2-c]pyrazole] | 155 to 157 |  |  |  | 
5 | COC(=O)c1ccc(-c2nn(-c3ccccc3Cl)c3cc[se]c23)o1 [Compound 36, 3-(5-Methoxycarbonyl-2-furyl)-1-(2-chlorophenyl)selenolo-[3,2-c]pyrazole] | 134 to 136 | > 100 | > 100 |  | 
6 | COC(=O)c1ccc(-c2nn(-c3cccc(Cl)c3)c3cc[se]c23)o1 [Compound 37, 3-(5-Methoxycarbonyl-2-furyl)-1-(3-chlorophenyl)selenolo-[3,2-c]pyrazole] | 107 to 109 | > 100 | > 100 |  | 
7 | COC(=O)c1ccc(-c2nn(-c3ccc(Cl)cc3)c3cc[se]c23)o1 [Compound 38, 3-(5-Methoxycarbonyl-2-furyl)-1-(4-chlorophenyl)selenolo-[3,2-c]pyrazole] | 146 to 148 | > 100 | > 100 |  | 
8 | COC(=O)c1ccc(-c2nn(-c3ccccc3F)c3cc[se]c23)o1 [Compound 39, 3-(5-Methoxycarbonyl-2-furyl)-1-(2-fluorophenyl)selenolo-[3,2-c]pyrazole] |  | > 100 | > 100 |  | 
9 | COC(=O)c1ccc(-c2nn(-c3ccc(F)cc3)c3cc[se]c23)o1 [Compound 40, 3-(5-Methoxycarbonyl-2-furyl)-1-(4-fluorophenyl)selenolo-[3,2-c]pyrazole] |  | > 100 | > 100 |  | 
10 | COC(=O)c1ccc(-c2nn(-c3ccccc3OC)c3cc[se]c23)o1 [Compound 41, 3-(5-Methoxycarbonyl-2-furyl)-1-(2-methoxyphenyl)selenolo-[3,2-c]pyrazole] | 72 to 76 | > 100 | > 100 |  | 
11 | COC(=O)c1ccc(-c2nn(-c3ccc(OC)cc3)c3cc[se]c23)o1 [Compound 42, 3-(5-Methoxycarbonyl-2-furyl)-1-(4-methoxyphenyl)selenolo-[3,2-c]pyrazole] | 89 to 92 | > 100 | > 100 |  | 
12 | Cc1cccc(-n2nc(-c3ccc(CO)o3)c3[se]ccc32)c1 [Compound 44, 3-(5-Hydroxymethyl-2-furyl)-1-5-methyl-phenylselenolo[3,2-c]pyrazole] |  | 1.98 | 25 | significant potency | significant potency
13 | O=C(O)c1ccc(-c2nn(-c3ccccc3)c3cc[se]c23)o1 [Compound 48, 3-(5-Hydroxycarbonyl-2-furyl)-1-phenylselenolo[3,2-c]pyrazole] | 234 to 237 |  |  |  | 
14 | Cc1cc2c([se]1)c(-c1ccc(C(=O)O)o1)nn2-c1ccccc1 [Compound 49, 3-(5-Hydroxycarbonyl-2-furyl)-1-phenyl-5-methylselenolo[3,2-c]pyrazole] | 236 to 239 |  |  |  | 
15 | COC(=O)c1ccc(-c2nn(Cc3ccccc3)c3cc[se]c23)o1 [Compound 55, 1-Benzyl-3-(5-methoxycarbonyl-2-furyl)selenolo[3,2-c]-pyrazole] | 130 to 131 |  |  |  | 
16 | COC(=O)c1ccc(-c2nn(Cc3ccccc3)c3cc(C)[se]c23)o1 [Compound 56, 1-Benzyl-3-(5-methoxycarbonyl-2-furyl)-5-methylselenolo[3,2-c]pyrazole] | 142 to 145 |  |  |  | 
17 | OCc1ccc(-c2nn(Cc3ccccc3)c3cc[se]c23)o1 [Compound 57, 1-Benzyl-3-(5-hydroxymethyl-2-furyl)selenolo[3,2-c]pyrazole] | 126 to 129 | 0.4 | 1.4 | significant potency | significant potency
18 | Cc1cc2c([se]1)c(-c1ccc(CO)o1)nn2Cc1ccccc1 [Compound 58, 1-Benzyl-3-(5-hydroxymethyl-2-furyl)-5-methylselenolo[3,2-c]pyrazole] | 147 to 148 |  |  |  | 
19 | O=C(O)c1ccc(-c2nn(Cc3ccccc3)c3cc[se]c23)o1 [Compound 59, 1-Benzyl-3-(5-hydroxycarbonyl-2-furyl)selenolo[3,2-c]pyrazole] | 243 to 244 |  |  |  | 
20 | O=C(O)CCC(=O)OCc1ccc(-c2nn(Cc3ccccc3)c3cc[se]c23)o1 [Compound 60, Succinic Acid mono-[5-(1-benzyl-selenolo[3,2-c]pyrazol-3-yl)furan-2-yl]methyl ester] | 111 to 114 | 0.8 | 2.2 | significant potency | significant potency
21 | COC(=O)c1ccc(-c2nn(-c3ccccc3)c3cc[se]c23)cc1 [Compound 66, 1-Phenyl-3-(p-methoxycarbonylphenyl)selenolo[3,2-c]pyrazole] | 165 to 166 |  |  |  | 
22 | COC(=O)c1ccc(-c2nn(Cc3ccccc3)c3cc[se]c23)cc1 [Compound 67, 1-Benzyl-3-(p-methoxycarbonylphenyl)selenolo[3,2-c]pyrazole] | 150 to 153 |  |  |  | 
23 | OCc1ccc(-c2nn(-c3ccccc3)c3cc[se]c23)cc1 [Compound 68, 1-Phenyl-3-(p-hydroxymethylphenyl)selenolo[3,2-c]pyrazole] | 133 to 134 |  |  |  | 
24 | OCc1ccc(-c2nn(Cc3ccccc3)c3cc[se]c23)cc1 [Compound 69, 1-Benzyl-3-(p-hydroxymethylphenyl)selenolo[3,2-c]pyrazole] | 158 to 160 |  |  |  | 
25 | COC(=O)c1ccc(-c2nn(-c3ccccc3)c3[se]ccc23)o1 [Compound 78, 3-(5-Methoxycarbonyl-2-furyl)-1-phenylselenolo[2,3-c]-pyrazole] | 167 to 169 | > 100 | > 100 |  | 
26 | COC(=O)c1ccc(-c2nn(Cc3ccccc3)c3[se]ccc23)o1 [Compound 79, 1-Benzyl-3-(5-methoxycarbonyl-2-furyl)selenolo[2,3-c]pyrazole] | 121 to 123 | > 100 | > 100 |  | 
27 | OCc1ccc(-c2nn(Cc3ccccc3)c3[se]ccc23)o1 [Compound 81, 1-Benzyl-3-(5-Hydroxymethyl-2-furyl)selenolo[2,3-c]pyrazole] | 130.2 to 131.3 | 0.14 |  | significant potency | significant potency
